DC50 and Dmax data for 6 compounds are collected here from patent publication US20240261417A1, “SOS1 DEGRADING AGENT AND PREPARATION METHOD THEREFOR AND APPLICATION THEREOF” (SHANGHAI LEADINGTAC PHARMACEUTICAL CO. LTD., priority 2021, published 2024).

This assay concerns the target T1, SOS1 protein (Homo sapiens, UniProt Q07889).
T1 sequence (Q07889 1-1333): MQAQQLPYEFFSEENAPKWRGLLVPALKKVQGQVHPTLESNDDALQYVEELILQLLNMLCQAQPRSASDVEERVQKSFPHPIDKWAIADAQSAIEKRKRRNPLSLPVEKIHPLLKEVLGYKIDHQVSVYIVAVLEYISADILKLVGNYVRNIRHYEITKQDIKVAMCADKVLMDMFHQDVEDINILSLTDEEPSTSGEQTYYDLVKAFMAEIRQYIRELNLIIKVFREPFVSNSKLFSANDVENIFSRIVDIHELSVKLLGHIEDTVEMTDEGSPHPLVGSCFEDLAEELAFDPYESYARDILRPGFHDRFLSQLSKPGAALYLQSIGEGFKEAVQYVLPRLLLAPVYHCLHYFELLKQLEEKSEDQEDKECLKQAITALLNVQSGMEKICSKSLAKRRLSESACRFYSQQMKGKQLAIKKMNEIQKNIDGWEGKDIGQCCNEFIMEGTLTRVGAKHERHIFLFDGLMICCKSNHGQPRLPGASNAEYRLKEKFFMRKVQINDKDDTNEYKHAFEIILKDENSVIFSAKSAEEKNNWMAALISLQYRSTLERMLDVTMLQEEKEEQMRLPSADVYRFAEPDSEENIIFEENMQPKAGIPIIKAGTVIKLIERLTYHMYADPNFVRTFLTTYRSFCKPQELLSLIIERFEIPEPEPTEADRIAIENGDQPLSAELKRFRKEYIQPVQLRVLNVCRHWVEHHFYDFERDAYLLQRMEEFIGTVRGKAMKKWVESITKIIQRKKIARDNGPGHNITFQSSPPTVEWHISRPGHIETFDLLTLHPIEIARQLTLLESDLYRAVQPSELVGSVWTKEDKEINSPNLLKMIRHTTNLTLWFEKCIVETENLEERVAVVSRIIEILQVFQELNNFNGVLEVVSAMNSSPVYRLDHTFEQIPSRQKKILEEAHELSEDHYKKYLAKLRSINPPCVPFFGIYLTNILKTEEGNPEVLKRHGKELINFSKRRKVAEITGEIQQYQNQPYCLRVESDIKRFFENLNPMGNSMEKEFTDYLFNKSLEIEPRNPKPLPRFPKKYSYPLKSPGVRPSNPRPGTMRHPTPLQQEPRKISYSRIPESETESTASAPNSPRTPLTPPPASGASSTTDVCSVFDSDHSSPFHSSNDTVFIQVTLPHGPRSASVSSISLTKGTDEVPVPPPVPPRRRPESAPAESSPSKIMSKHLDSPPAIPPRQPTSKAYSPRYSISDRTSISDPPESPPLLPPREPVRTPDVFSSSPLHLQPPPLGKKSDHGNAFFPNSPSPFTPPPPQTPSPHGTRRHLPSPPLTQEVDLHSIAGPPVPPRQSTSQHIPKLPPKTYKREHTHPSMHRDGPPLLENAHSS
Put plainly: SOS1 degradation assay (Western blot), A-427 cells. The assay is classed as cell-based. Also noted: host or cells: A-427 (human cancer cell lines). To be noted: 24 h; for DC50: read-out: A427 (G12D) DC50; for Dmax: read-out: A427 (G12D) Dmax. On the procedure:
The specific procedures were as follows:
0.95 mL of cells were seeded into each well of a 24-well cell culture plate to achieve a cell density of 5×10^5 cells/well; the cell plate was incubated in an incubator at 37° C. with 5% CO2 overnight. Then 50 μL of the compound solution after dilution was added to each of the wells with the corresponding cells, so that the final concentration of the compound was in a range of 0.03-3000 nM. […] After dosing, the cell plate was incubated in an incubator at 37° C. with 5% CO2 for 24 h. […] After the plate was left to stand on ice for 30 min, the protein lysate in each well was transferred to a 1.5 mL centrifuge tube and centrifuged at 15000 g for 20 min at 4° C. The cell lysate supernatant after centrifugation was cryopreserved at −80° C. for testing and was used for determining the degradation level of the SOS1 protein by a WB method. The concentration of total protein in the cell lysate supernatant was determined using the BCA Protein Quantification Kit (Tiangen, PA115-02).
The concentration of total protein in the cell lysate was determined by BCA. The total protein was adjusted to 0.5 μg/μL with PBS and 5× SDS-PAGE protein loading buffer (Beyotime, P0015L), incubated in a water bath at 100° C. for 15 min, incubated in an ice bath on ice for 5 min, centrifuged at 14000 g for 1 min at 4° C., and mixed well as a loading sample for WB. Protein electrophoresis was performed on a precast gel (KeyGEN, KGMGO10W15) with a loading volume of 10 μL (total protein: 5 μg) using a Tris-MOPS-SDS running solution (Adamas, P1598253) at a constant voltage of 120 V for 55 min. After the electrophoresis, the protein on the gel strip was transferred to a PVDF membrane at a constant current of 250 mA for 65 min. After the membrane transfer, the membrane was incubated in 1× QuickBlock blocking buffer (Beyotime, P0235) for 30 min at room temperature. […] The protein map was subjected to gray value analysis by the chemiluminescence imaging system from Clinx. […] Then the degradation rate was calculated by comparing the gray correction value with the gray correction value of the control group. Then nonlinear curve fitting was performed by GraphPad Prism 8 in the logarithmic concentration-inhibition rate to obtain the DC50 and Dmax values of the compounds.
A general note: In western blotting, separated proteins are transferred to a membrane and probed.

For the compound `COc1cc2nc(C)nc(N[C@H](C)c3cc(N)cc(C(F)(F)F)c3)c2cc1[C@H]1CC[C@H](C(=O)N2CCN(CCOCC3CCN(C(=O)c4ccc(Cl)c(N5CCC(=O)NC5=O)c4)CC3)CC2)CC1` [Example 33, 1-(5-(4-((2-(4-((1R,4R)-4-(4-(((R)-1-(3-amino-5-(trifluoromethyl)phenyl)ethyl)amino)-7-methoxy-2-methylquinazolin-6-yl)cyclohexane-1-carbonyl)piperazin-1-yl)ethoxy)methyl)piperidine-1-carbonyl)-2-chlorophenyl)dihydropyrimidine-2,4(1H,3H)-dione], the half-maximal degradation concentration (DC50) is under 50 nM and the Dmax lay within 80 to 100%.

Regarding `COc1cc2nc(C)nc(N[C@H](C)c3cc(N)cc(C(F)(F)F)c3)c2cc1[C@H]1CC[C@H](C(=O)N2CCC(CCOCC3CCN(C(=O)c4ccc(Cl)c(N5CCC(=O)NC5=O)c4)CC3)CC2)CC1` [Example 19, 1-(5-(4-((2-(1-((1R,4R)-4-(4-(((R)-1-(3-amino-5-(trifluoromethyl)phenyl)ethyl)amino)-7-methoxy-2-methylquinazolin-6-yl)cyclohexane-1-carbonyl)piperidin-4-yl)ethoxy)methyl)piperidine-1-carbonyl)-2-chlorophenyl)dihydropyrimidine-2,4(1H,3H)-dione], the DC50 was under 50 nM and the Dmax lay in the range of 50 to 80%.

With `COc1cc2nc(C)nc(N[C@H](C)c3cc(N)cc(C(F)(F)F)c3)c2cc1[C@H]1CC[C@H](C(=O)N2CCN(CC3CCC4(CC3)CCN(C(=O)c3ccc(Cl)c(N5CCC(=O)NC5=O)c3)CC4)CC2)CC1` [Example 2, 1-(5-(9-((4-((1R,4R)-4-(4-(((R)-1-(3-amino-5-(trifluoromethyl)phenyl)ethyl)amino)-7-methoxy-2-methylquinazolin-6-yl)cyclohexane-1-carbonyl)piperazin-1-yl)methyl)-3-azaspiro[5.5]undecane-3-carbonyl)-2-chlorophenyl)dihydropyrimidine-2,4(1H,3H)-dione], the DC50 is under 50 nM and the maximal degradation (Dmax) fell in the range of 80 to 100%.

For the compound `COc1cc2nc(C)nc(N[C@H](C)c3cc(N)cc(C(F)(F)F)c3)c2cc1[C@H]1CC[C@H](C(=O)N2CCN(CCC3CCC4(CC3)CCN(C(=O)c3ccc(Cl)c(N5CCC(=O)NC5=O)c3)CC4)CC2)CC1` [Example 1, 1-(5-(9-(2-(4-((1R,4R)-4-(4-(((R)-1-(3-amino-5-(trifluoromethyl)phenyl)ethyl)amino)-7-methoxy-2-methylquinazolin-6-yl)cyclohexane-1-carbonyl)piperazin-1-yl)ethyl)-3-azaspiro[5.5]undecane-3-carbonyl)-2-chlorophenyl)dihydropyrimidine-2,4(1H,3H)-dione], the DC50 is under 50 nM and the Dmax fell in the range of 80 to 100%.

Regarding `CNCc1ccccc1-c1csc([C@@H](C)Nc2nc(C)nc3cc(OC)c([C@H]4CC[C@H](C(=O)N5CCN(CC6CCC7(CC6)CCN(C(=O)c6ccc(OC)c(N8CCC(=O)NC8=O)c6)CC7)CC5)CC4)cc23)c1` [Example 73, 1-(2-methoxy-5-(9-((4-((1R,4R)-4-(7-methoxy-2-methyl-4-(((R)-1-(4-(2-((methylamino)methyl)phenyl)thien-2-yl)ethyl)amino)quinazolin-6-yl)cyclohexane-1-carbonyl)piperazin-1-yl)methyl)-3-azaspiro[5.5]undecane-3-carbonyl)phenyl)dihydropyrimidine-2,4(1H,3H)-dione], the DC50 was under 50 nM and the Dmax lay in the range of 80 to 100%.

As to `COc1cc2nc(C)nc(N[C@H](C)c3cccc4c3CCS4(=O)=O)c2cc1[C@H]1CC[C@H](C(=O)N2CCN(CC3CCC4(CC3)CCN(C(=O)c3ccc(Cl)c(N5CCC(=O)NC5=O)c3)CC4)CC2)CC1` [Example 10, 1-(2-chloro-5-(9-((4-((1R,4R)-4-(4-(((R)-1-(1,1-dioxo-2,3-dihydrobenzo[b]thiophen-4-yl)ethyl)amino)-7-methoxy-2-methylquinazolin-6-yl)cyclohexane-1-carbonyl)piperazin-1-yl)methyl)-3-azaspiro[5.5]undecane-3-carbonyl)phenyl)dihydropyrimidine-2,4(1H,3H)-dione], the DC50 was under 50 nM and the Dmax was 80 to 100%.

The term DC50 denotes the midpoint of the concentration-degradation curve. As usually defined, the Dmax is the largest share of the target that was removed.
